Laboratory results as given in ChEMBL document CHEMBL4028900, “Design of Novel 3-Pyrimidinylazaindole CDK2/9 Inhibitors with Potent In Vitro and In Vivo Antitumor Efficacy in a Triple-Negative Breast Cancer Model” (J Med Chem, 2017).
Converted amounts (≈) assume the structure as drawn. Values belong to the molecule of their own block, whether it stands above or below them.

Assays:
[1] = system: HCT-116; test: Antiproliferative activity against human HCT116 cells after 72 hrs by SRB assay; conditions: HCT-116, 72 h
[2] = system: SH-SY5Y; test: Antiproliferative activity against human SH-SY5Y cells after 24 hrs by MTT assay; assay type: functional, cell-based
[3] = Thermodynamic equilibrium solubility of the compound in water
[4] = Thermodynamic equilibrium solubility of the compound in PBS
[5] = Thermodynamic equilibrium solubility of the compound in SGF
[6] = Thermodynamic equilibrium solubility of the compound in SIF
[7] = molecular target: CDK2/Cyclin A2 (Homo sapiens, UniProt P24941); test: Inhibition of CDK2/cyclin A (unknown origin) using histone H1 as substrate after 30 mins in presence of [33P]-gamma-ATP; assay type: protein-complex assay
[8] = molecular target: CDK9/cyclin T1 (Homo sapiens, UniProt P50750); assay type: protein-complex assay
[9] = molecular target: CDK2/Cyclin A2 (Homo sapiens) (UniProt P24941+P20248); conditions: at 500 nM
Description: Inhibition of CDK2/cyclin A (unknown origin) at 500 nM using histone H1 as substrate after 30 mins in presence of [33P]-gamma-ATP relative to control

[10] = molecular target: CDK9/cyclin T1 (Homo sapiens) (UniProt O60563+P50750); conditions: at 500 nM
[11] = Plasma concentration in BALB/c mouse at 2.5 mg/kg, iv at […] by LC/MS-MS analysis; assay type: ADME, organism-based
[12] = Plasma concentration in BALB/c mouse at 2.5 mg/kg, iv at 0.25 hrs by LC/MS-MS analysis; assay type: ADME, organism-based
[13] = Plasma concentration in BALB/c mouse at 2.5 mg/kg, iv at 0.5 hrs by LC/MS-MS analysis; assay type: ADME, organism-based
[14] = Plasma concentration in BALB/c mouse at 2.5 mg/kg, iv at 1 hr by LC/MS-MS analysis; assay type: ADME, organism-based
[15] = Plasma concentration in BALB/c mouse at 2.5 mg/kg, iv at 2 hrs by LC/MS-MS analysis; assay type: ADME, organism-based
[16] = Plasma concentration in BALB/c mouse at 2.5 mg/kg, iv at 4 hrs by LC/MS-MS analysis; assay type: ADME, organism-based
[17] = Initial concentration in BALB/c mouse at 2.5 mg/kg, iv by LC/MS-MS analysis; assay type: ADME, organism-based; conditions: in vivo
[18] = AUC (0 to t) in BALB/c mouse at 2.5 mg/kg, iv by LC/MS-MS analysis; assay type: ADME, organism-based; conditions: in vivo
[19] = Half life in BALB/c mouse at 2.5 mg/kg, iv by LC/MS-MS analysis; assay type: ADME, organism-based; conditions: in vivo
[20] = Volume of distribution in BALB/c mouse at 2.5 mg/kg, iv by LC/MS-MS analysis; assay type: ADME, organism-based; conditions: in vivo
[21] = Clearance in BALB/c mouse at 2.5 mg/kg, iv by LC/MS-MS analysis; assay type: ADME, organism-based; conditions: in vivo
[22] = AUC (0 to infinity) in BALB/c mouse at 2.5 mg/kg, iv by LC/MS-MS analysis; assay type: ADME, organism-based; parameters: dose 2.5 mg/kg, time infinity, route intravenous; conditions: in vivo
[23] = system: MDA-MB-231; test: Antiproliferative activity against human MDA-MB-231 cells
[24] = system: MDA-MB-468; test: Antiproliferative activity against human MDA-MB-468 cells
[25] = system: T47D; test: Antiproliferative activity against human T47D cells after 72 hrs by SRB assay
[26] = system: BT-549; test: Antiproliferative activity against human BT549 cells
[27] = system: MCF7; test: Antiproliferative activity against human MCF7 cells
[28] = system: 4T1; test: Antiproliferative activity against mouse 4T1 cells after 24 hrs by MTT assay; conditions: 4T1, 24 h
[29] = Antiproliferative activity against HEK cells; conditions: Homo sapiens, HEK293

Sequence of CDK9/cyclin T1 (O60563 whole entry): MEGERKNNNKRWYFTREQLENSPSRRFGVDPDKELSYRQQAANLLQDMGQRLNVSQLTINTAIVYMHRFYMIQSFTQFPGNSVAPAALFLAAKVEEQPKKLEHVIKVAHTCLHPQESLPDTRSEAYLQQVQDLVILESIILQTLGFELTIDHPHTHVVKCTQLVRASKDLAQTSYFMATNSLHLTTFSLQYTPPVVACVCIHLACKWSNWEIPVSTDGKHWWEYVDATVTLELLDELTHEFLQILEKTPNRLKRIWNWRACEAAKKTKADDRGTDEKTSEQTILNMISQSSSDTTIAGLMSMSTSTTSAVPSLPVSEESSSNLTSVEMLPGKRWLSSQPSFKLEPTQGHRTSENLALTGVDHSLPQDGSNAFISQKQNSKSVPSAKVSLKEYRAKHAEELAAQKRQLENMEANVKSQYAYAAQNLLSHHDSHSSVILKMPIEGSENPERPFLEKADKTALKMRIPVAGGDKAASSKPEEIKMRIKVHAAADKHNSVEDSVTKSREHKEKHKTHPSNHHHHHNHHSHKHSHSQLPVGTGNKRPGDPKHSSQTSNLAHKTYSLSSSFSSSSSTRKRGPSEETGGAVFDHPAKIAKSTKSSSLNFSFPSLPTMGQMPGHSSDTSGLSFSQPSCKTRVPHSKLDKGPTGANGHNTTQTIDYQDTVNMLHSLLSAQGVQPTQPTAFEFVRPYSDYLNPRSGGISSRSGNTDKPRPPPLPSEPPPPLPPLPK
Sequence of CDK9/cyclin T1 (P50750 whole entry): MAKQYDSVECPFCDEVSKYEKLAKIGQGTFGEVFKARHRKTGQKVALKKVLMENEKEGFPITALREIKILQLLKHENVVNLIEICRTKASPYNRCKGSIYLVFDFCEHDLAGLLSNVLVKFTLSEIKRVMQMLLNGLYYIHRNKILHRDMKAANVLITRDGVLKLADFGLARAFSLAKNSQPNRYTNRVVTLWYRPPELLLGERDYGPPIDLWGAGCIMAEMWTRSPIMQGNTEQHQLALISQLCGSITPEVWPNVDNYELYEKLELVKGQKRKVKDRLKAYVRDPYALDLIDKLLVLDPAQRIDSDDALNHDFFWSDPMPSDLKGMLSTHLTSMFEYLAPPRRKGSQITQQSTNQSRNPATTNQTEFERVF

Structure (SMILES): Nc1nccc(-c2c[nH]c3ncc(-c4ccoc4)cc23)n1
IC50 [1]: 700 nM
IC50 [2]: 900 nM
solubility thermodynamic [3]: 20 µg/mL (≈ 72.1 µM)
solubility thermodynamic [4]: 10 µg/mL (≈ 36.1 µM)
solubility thermodynamic [5]: 800 µg/mL (≈ 2890 µM)
solubility thermodynamic [6]: 1 µg/mL (≈ 3.61 µM)

Structure (SMILES): COc1ccc2[nH]c(-c3cnc4[nH]cc(-c5ccnc(N)n5)c4c3)cc2c1
IC50 [7]: 16 nM
IC50 [8]: 342 nM
inhibition [9]: 90.2%
inhibition [10]: 82.4%

Structure (SMILES): Nc1nccc(-c2cn(S(=O)(=O)c3ccc4c(c3)OCCO4)c3ncccc23)n1
inhibition [9]: 48.7%
inhibition [10]: 52.2%

Structure (SMILES): Cn1cncc1S(=O)(=O)n1cc(-c2ccnc(N)n2)c2cccnc21
inhibition [9]: 55.2%
inhibition [10]: 50.3%

Structure (SMILES): CN1CCN(c2nccc(-c3c[nH]c4ncccc34)n2)CC1
IC50 [7]: 350 nM
IC50 [8]: 700 nM
inhibition [9]: 71.6%
inhibition [10]: 70.5%

Structure (SMILES): CC(=O)Nc1ccc(S(=O)(=O)n2cc(-c3ccnc(N)n3)c3cccnc32)cc1
inhibition [9]: 36.3%
inhibition [10]: 44.2%

Structure (SMILES): Nc1nccc(-c2cn(S(=O)(=O)c3ccc(OC(F)(F)F)cc3)c3ncccc23)n1
inhibition [9]: 31.3%
inhibition [10]: 54.4%

Structure (SMILES): Nc1nccc(-c2c[nH]c3ncc(-c4ccsc4)cc23)n1
IC50 [1]: 600 nM
IC50 [2]: 3300 nM
IC50 [7]: 1 nM
IC50 [8]: 35 nM
inhibition [9]: 95.1%
inhibition [10]: 93.5%

Now from value to molecule, other results behind:

IC50 [7]: 160 nM
IC50 [8]: 450 nM
inhibition [9]: 78.3%
inhibition [10]: 77.2%
Structure (SMILES): c1cnc2[nH]cc(-c3ccnc(N4CCCC4)n3)c2c1

IC50 [1]: 1800 nM
IC50 [8]: 30 nM
solubility thermodynamic [3]: 95.8 µg/mL (≈ 454 µM)
solubility thermodynamic [4]: 89 µg/mL (≈ 421 µM)
solubility thermodynamic [5]: 352 µg/mL (≈ 1670 µM)
solubility thermodynamic [6]: 87.7 µg/mL (≈ 415 µM)
concentration at […] [11]: 167 ng/mL
concentration at 0.25 h [12]: 34.1 ng/mL
concentration at 0.5 h [13]: 12.6 ng/mL
concentration at 1 h [14]: 4.5 ng/mL
concentration at 2 h [15]: 1 ng/mL
concentration at 4 h [16]: 0.8 ng/mL
C0 [17]: 230 ng/mL
AUC(0-t) [18]: 46.2 ng·h/mL
half-life [19]: 28.2 min
Vd [20]: 36.5 L/kg
clearance [21]: 897 mL/min/kg
AUC(0-inf) [22]: 46.9 ng·h/mL
IC50 [23]: 6000 nM
IC50 [24]: 13000 nM
IC50 [25]: 8000 nM
IC50 [26]: 7000 nM
IC50 [27]: 6000 nM
IC50 [28]: 2500 nM
Structure (SMILES): Nc1nccc(-c2c[nH]c3ncccc23)n1 [MERIOLIN 1]
IC50 [29]: 36000 nM

inhibition [9]: 84.8%
inhibition [10]: 82.6%
Structure (SMILES): Cc1cccc(-c2cnc3[nH]cc(-c4ccnc(N)n4)c3c2)c1

IC50 [7]: 22 nM
IC50 [8]: 59 nM
inhibition [9]: 89.2%
inhibition [10]: 85%
Structure (SMILES): COc1ccc(CCNc2nccc(-c3c[nH]c4ncccc34)n2)cc1OC

IC50 [7]: 10 nM
IC50 [8]: 52 nM
inhibition [9]: 89.7%
inhibition [10]: 88%
Structure (SMILES): c1ccc2c(CCNc3nccc(-c4c[nH]c5ncccc45)n3)c[nH]c2c1

IC50 [7]: 231 nM
IC50 [8]: 642 nM
inhibition [9]: 73.3%
inhibition [10]: 72.9%
Structure (SMILES): c1cnc2[nH]cc(-c3ccnc(N4CCOCC4)n3)c2c1

IC50 [7]: 75 nM
IC50 [8]: 213 nM
inhibition [9]: 79.3%
inhibition [10]: 70.4%
Structure (SMILES): CCc1ccccc1-c1cnc2[nH]cc(-c3ccnc(N)n3)c2c1
